Laboratory results from patent US20030134901A1, “Lipoxin compounds and their use in treating cell proliferative disorders” (priority 1993, published 2003).

Assays:
[1] = target: T1, LXA4 specific binding sites of differentiated HL-60 cells (Homo sapiens, UniProt P25090); assay: 3H-LXA4 specific binding to differentiated HL-60 cells; conditions: competition, competitor 300 nM where printed
T1 construct: endogenous in cells; host or cells: HL-60 cells differentiated with DMSO, retinoic acid or PMA; intact cells
T1 sequence (P25090 1-351): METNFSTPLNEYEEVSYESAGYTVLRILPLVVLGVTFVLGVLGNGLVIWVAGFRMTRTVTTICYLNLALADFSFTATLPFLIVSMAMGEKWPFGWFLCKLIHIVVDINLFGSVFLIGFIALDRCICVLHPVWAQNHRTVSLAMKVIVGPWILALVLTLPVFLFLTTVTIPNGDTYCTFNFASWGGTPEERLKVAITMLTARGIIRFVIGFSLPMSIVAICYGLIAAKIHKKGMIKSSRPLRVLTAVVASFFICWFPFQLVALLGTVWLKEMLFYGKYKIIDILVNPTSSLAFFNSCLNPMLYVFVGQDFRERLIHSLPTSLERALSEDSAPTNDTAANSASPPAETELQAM
Procedure: Preparation of [11,12-^3H]LXA4. Tritiation of 11,12-acetylenic LXA4 methyl ester was carried out under a custom tritiation service (NET-259:92-2326) by New England Nuclear (Boston, Mass.). Briefly, 11,12-acetylene methyl ester was characterized by UV absorbance and reverse-phase HPLC as in (Nicolaou, K. C. et al. (1985) J. Am. Chem. Soc. 107:7515) and exposed to tritium atmosphere in methylene chloride at room temperature. This incubation was stirred in the presence of Lindlar catalyst (1.0 mg from Fluka Chemicals) for˜1 h. The resulting mixture was stored in methanol and isolated using RP-HPLC. Tritiated products were chromatographed as methyl esters utilizing a gradient HPLC system equipped with a photodiode array rapid spectral detector (Serhan, C. N., Methods in Enzymology: Arachidonate Related Lipid Mediators, in Murphy R. C., Fitzpatrick, F. (eds.), vol. 187. Orlando, Fla., Academic, (1990), p. 167). This mixture contained both [11,12-^3H]LXA4 and [11,12-^3H]-11-trans-LXA4 methyl esters (˜1:3 ratio) as determined by coelution with synthetic standards. After RP-HPLC, fractions containing [11,12-^3H]LXA4 were collected, and extracted into ethyl acetate. The free acid was prepared by LiOH saponification (Fiore, S. et al. (1992) J. Biol. Chem. 267:16168). Material from these fractions, when injected into UV-electrochemical detection HPLC, gave greater than 90% of radioactivity associated with a tetraene-containing product that coeluted with synthetic LXA4. Materials that eluted with the retention time of authentic LXA4 in two HPLC systems were taken for binding experiments. The specific activity calculated for [11,12-^3H]LXA4 was 40.5 Ci/mmole.
Cell cultures and differentiation. HL-60 cells were seeded in RPMI medium supplemented with 100 U/ml penicillin, 100 μg/ml streptomycin, and 10% fetal calf serum (Hyclone, Logan, Utah), incubated at 37° C. with 5% CO2 atmosphere in 250 ml flasks. Individual flasks containing ˜[…] next received dimethyl sulfoxide (DMSO) (1.12% v/v, 120 h) or retinoic acid (RA) (1 μM, 120 h) or phorbol myristate acetate (PMA) (20 nM, 48 h). Before performing binding assays, cells were washed twice in phosphate buffered saline (PBS), Ca^2+- and Mg^2+-free, enumerated and suspended at 20×10^6 cells/ml in Tris buffer (10 mM), pH 7.4 (Fiore, S. et al.(1992) J. Biol. Chem. 267:16168). Nitro blue tetrazolium reduction was performed to monitor induction of polymorphonuclear phenotype as in (Imaizumi, M. and Breitman, T. R. (1986) Blood 67:1273), and cell adherence was determined for induction of macrophage-like phenotype (Collins, S. J. (1987) Blood 70:1273). Human umbilical vein endothelial cells (HUVEC) maintained in culture third passage were obtained from Dr. M. Gimbrone (Brigham and Women's Hospital Department of Pathology).
Ligand binding. ^3H-LXA4 and ^3H-LTB4 binding was performed essentially as in Fiore, S. et al.(1992) J. Biol. Chem. 267:16168. After suspending cells in Tris buffer 10 mM (pH 7.4, Ca^2+ 2.5 mM, Mg^2+ 1.2 mM), aliquots (0.5 ml) were incubated (20 min at 4° C.) with ^3H- ligands alone (0.3 nM) or in the presence of increasing concentrations of homoligands or other compounds (3-300 nM). The incubations were rapidly centrifuged (60 sec, 12,000 g) on silicon oil (d=1.028), and cell-associated radioactivity was determined by liquid scintillation counting (Wallac 1409, Pharmacia, Piscataway, N.J.). Binding experiments with HUVEC cells were performed in 12 well plates with 3.5×10^5 cells/well. After 10 min, wells were washed twice with PBS and cell-associated label was recovered by adding glacial acetic acid (0.5 ml). Results obtained from these assays were submitted for further analysis using the Ligand program (Elsevier-Biosoft, Cambridge, UK).

A549 cells = assay: A549 cell proliferation, MTT assay; format: cell-based, human
Procedure: A microculture 3,(4,5-dimethylthiazoyl-2-yl) 2,5 (diphenyl-tetrazolium bromide) (MTT) assay, (Marshall, N. J., et al. (1995) A critical assessment of the use of microculture tetrazolium assays to measure cell growth and function. Growth Regul. 5: 69-84.), was used to examine the actions of LXs and other eicosanoids on cell proliferation. A549 cells and fibroblasts from exponential-phase maintenance cultures were counted and dispensed within replicate 96-well culture plates in 100 μl volumes of medium (˜2000 cells/well). Following 24 hours at 37° C., the culture medium was removed, and fresh medium (100 μl) containing either the compounds (5-1000 nM) or vehicle (medium plus 0.15% ethanol) was added to 4 replicates for each condition studied and the culture plates were then incubated for up to 96 hours at 37° C. in a 5% CO2 atmosphere. At the end of this period, 25 μl of freshly prepared MTT in HBSS (5 mg/ml) was added to the wells and the plates were incubated for 4 hours at 37° C. Dye solution was aspirated, wells were washed once with HBSS and dye taken up by the cells was extracted in 100 μl of isopropyl alcohol:1 N HCl (96:4, v/v) and quantitated at 570 nm using a microplate reader (Molecular Devices, Menlo Park, Calif.). In some experiments, cells were grown in 12-well culture plates, treated as above and enumerated using a Neubauer hemocytometer. Viability was assessed routinely using trypan blue exclusion assay. For the A549 cells and fibroblasts, a linear relation was established for the MTT values and cell number within the range of the experiments shown (r=0.995, P<0.005). A549 cells grown for 72 hours in the presence of the compounds (5-1000 nM) or vehicle (0.15% EtOH) were lysed with 0.25 N NaOH and the cellular protein content was determined by applying the Bio-Rad (Richmond, Calif.) microassay method using bovine serum albumin as standard. The mean cellular protein content in resting A549 cells was 46.6±1.5 pg/cell.

human skin fibroblasts = assay: Fibroblast proliferation, MTT assay; format: cell-based; conditions: 100 nM, n=3
Text: Human type II epithelial A549 cells from human lung carcinoma and normal human skin fibroblast (breast) were obtained from the American Type Culture Collection (Rockville, Md.). The A549 cell line originated from a human alveolar cell carcinoma and was a useful cell line because it was easily assessable and could be maintained in culture without contaminating tissue macrophages. (Lieber, M., et al (1976) A continuous tumor-cell line from a human lung carcinoma with properties of type II alveolar epithelial cells. Int. J Cancer Fibroblasts were utilized within their limited window of viability and their passage numbers were recorded (results are reported for cells from 3-5 passages). Epithelial A549 cells were seeded into T-75 cm^2 tissue culture flasks and maintained in F-12K medium supplemented with 10% heat-inactivated FBS, penicillin (50 U/mL) and streptomycin (50 (g/mL). Human PMN from healthy donors who had not taken ASA or other medications for at least two weeks were obtained by Ficoll-Hypaque gradient centrifugation and dextran sedimentation, (Böyum A. (1968) Isolation of mononuclear cells and granulocytes from human blood. […] Viability of A549 cells and PMN was determined by their ability to exclude trypan blue and were 95±2 and 97±1%, respectively.
A microculture 3,(4,5-dimethylthiazoyl-2-yl) 2,5 (diphenyl-tetrazolium bromide) (MTT) assay, (Marshall, N. J., et al. (1995) A critical assessment of the use of microculture tetrazolium assays to measure cell growth and function. Growth Regul. 5: 69-84.), was used to examine the actions of LXs and other eicosanoids on cell proliferation. A549 cells and fibroblasts from exponential-phase maintenance cultures were counted and dispensed within replicate 96-well culture plates in 100 μl volumes of medium (˜2000 cells/well). […] Dye solution was aspirated, wells were washed once with HBSS and dye taken up by the cells was extracted in 100 μl of isopropyl alcohol:1 N HCl (96:4, v/v) and quantitated at 570 nm using a microplate reader (Molecular Devices, Menlo Park, Calif.). […]

CCCCC[C@H](O)[C@H](O)/C=C/C=C/C=C\C=C\[C@@H](O)CCCC(=O)O [LXB4, (5S, 14R, 15S)-trihydroxy-6E, 8Z, 10E, 12E-eicosatetraenoic acid]
displacement of 3H-LXA4 specific binding [1]: Neither LXB4, LTB4, nor trihydroxyheptanoic acid (methyl ester) (300 nM) were able to displace
inhibition of A549 cell proliferation over time (A549 cells; 1 μM, after 72 and 96 hours of treatment): inhibited A549 cell proliferation
% inhibition (A549 cells; 10^−7 M, 72 hours at 37° C., mean ± SEM, 3 to 7 experiments): 30.0 ± 8.5%
times more active than either LXA4 or dexamethasone (A549 cells; concentrations of 0.5 and 1 μM, 72 hours): 3 times
inhibition proliferation (A549 cells; equimolar levels (100 nM), Table 1): ~34%
inhibition of proliferation of fibroblasts (human skin fibroblasts): 38.0%
